We go through eight molecules from article PMC4958244 (mBio, 2016).

By Kd is commonly meant the concentration at which binding is half-saturated. A lower Kd goes with tighter binding.

Assay [1] deals with T1, N-Als3p (Candida albicans, UniProt Q59L12).
T1 construct: gene ALS3; N-terminal part (Ig-like adhesin domain); recombinant, purified from S. cerevisiae or E. coli as previously described
Put plainly: CFG glycan array v5.[…]. It counts as binding. The note with it: glycan printed on glass slide, N-Als3p NT-647 labelled.

The target in assay [2] is T1, N-Als3p. Put plainly: SPR, immobilised BSA-GlcNAc. Type of assay: binding. The note with it: GlcNAc shown as BSA glycoconjugate on CM5 chip, 25°C. In general terms: Surface plasmon resonance follows binding to a sensor surface in real time, without labels.
The target in assay [3] is Laminin, from human placenta (human). In words: SPR; Biacore 3000, 25°C; FN, mucin or laminin covalently immobilised on a CM5 chip by amine coupling, adhesin domain flowed over; dissociation constants in the equilibrium state.
In the next assay the target is T2, N-Epa1p (Nakaseomyces glabratus, UniProt Q6VBJ0).
T2 construct: gene EPA1; N-terminal PA14-like lectin domain; recombinant, purified from S. cerevisiae or E. coli as previously described
T2 sequence (Q6VBJ0 entry or part of it): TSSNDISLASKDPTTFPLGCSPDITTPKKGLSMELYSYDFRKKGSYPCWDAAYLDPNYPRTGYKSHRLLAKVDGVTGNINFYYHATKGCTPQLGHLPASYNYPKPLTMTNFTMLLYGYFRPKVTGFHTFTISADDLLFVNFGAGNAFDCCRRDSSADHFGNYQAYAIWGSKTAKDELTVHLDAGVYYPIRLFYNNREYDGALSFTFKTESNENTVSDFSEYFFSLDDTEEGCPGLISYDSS
In words: SPR inhibition of binding to immobilised mucin. Conditions: competition with porcine stomach mucin, lactose 6 µM to 1.5 mM, 25°C.

Assay [4] has as its target Mucin, partially purified from porcine stomach (porcine). Put plainly: SPR; Biacore 3000, 25°C; FN, mucin or laminin covalently immobilised on a CM5 chip by amine coupling, adhesin domain flowed over; dissociation constants in the equilibrium state.
For another assay, the target named is Fibronectin (FN) (UniProt P02751 32-2477). The assay is described as above. The note with it: both partners purified.
Sequence of Fibronectin (FN) (P02751 32-2477): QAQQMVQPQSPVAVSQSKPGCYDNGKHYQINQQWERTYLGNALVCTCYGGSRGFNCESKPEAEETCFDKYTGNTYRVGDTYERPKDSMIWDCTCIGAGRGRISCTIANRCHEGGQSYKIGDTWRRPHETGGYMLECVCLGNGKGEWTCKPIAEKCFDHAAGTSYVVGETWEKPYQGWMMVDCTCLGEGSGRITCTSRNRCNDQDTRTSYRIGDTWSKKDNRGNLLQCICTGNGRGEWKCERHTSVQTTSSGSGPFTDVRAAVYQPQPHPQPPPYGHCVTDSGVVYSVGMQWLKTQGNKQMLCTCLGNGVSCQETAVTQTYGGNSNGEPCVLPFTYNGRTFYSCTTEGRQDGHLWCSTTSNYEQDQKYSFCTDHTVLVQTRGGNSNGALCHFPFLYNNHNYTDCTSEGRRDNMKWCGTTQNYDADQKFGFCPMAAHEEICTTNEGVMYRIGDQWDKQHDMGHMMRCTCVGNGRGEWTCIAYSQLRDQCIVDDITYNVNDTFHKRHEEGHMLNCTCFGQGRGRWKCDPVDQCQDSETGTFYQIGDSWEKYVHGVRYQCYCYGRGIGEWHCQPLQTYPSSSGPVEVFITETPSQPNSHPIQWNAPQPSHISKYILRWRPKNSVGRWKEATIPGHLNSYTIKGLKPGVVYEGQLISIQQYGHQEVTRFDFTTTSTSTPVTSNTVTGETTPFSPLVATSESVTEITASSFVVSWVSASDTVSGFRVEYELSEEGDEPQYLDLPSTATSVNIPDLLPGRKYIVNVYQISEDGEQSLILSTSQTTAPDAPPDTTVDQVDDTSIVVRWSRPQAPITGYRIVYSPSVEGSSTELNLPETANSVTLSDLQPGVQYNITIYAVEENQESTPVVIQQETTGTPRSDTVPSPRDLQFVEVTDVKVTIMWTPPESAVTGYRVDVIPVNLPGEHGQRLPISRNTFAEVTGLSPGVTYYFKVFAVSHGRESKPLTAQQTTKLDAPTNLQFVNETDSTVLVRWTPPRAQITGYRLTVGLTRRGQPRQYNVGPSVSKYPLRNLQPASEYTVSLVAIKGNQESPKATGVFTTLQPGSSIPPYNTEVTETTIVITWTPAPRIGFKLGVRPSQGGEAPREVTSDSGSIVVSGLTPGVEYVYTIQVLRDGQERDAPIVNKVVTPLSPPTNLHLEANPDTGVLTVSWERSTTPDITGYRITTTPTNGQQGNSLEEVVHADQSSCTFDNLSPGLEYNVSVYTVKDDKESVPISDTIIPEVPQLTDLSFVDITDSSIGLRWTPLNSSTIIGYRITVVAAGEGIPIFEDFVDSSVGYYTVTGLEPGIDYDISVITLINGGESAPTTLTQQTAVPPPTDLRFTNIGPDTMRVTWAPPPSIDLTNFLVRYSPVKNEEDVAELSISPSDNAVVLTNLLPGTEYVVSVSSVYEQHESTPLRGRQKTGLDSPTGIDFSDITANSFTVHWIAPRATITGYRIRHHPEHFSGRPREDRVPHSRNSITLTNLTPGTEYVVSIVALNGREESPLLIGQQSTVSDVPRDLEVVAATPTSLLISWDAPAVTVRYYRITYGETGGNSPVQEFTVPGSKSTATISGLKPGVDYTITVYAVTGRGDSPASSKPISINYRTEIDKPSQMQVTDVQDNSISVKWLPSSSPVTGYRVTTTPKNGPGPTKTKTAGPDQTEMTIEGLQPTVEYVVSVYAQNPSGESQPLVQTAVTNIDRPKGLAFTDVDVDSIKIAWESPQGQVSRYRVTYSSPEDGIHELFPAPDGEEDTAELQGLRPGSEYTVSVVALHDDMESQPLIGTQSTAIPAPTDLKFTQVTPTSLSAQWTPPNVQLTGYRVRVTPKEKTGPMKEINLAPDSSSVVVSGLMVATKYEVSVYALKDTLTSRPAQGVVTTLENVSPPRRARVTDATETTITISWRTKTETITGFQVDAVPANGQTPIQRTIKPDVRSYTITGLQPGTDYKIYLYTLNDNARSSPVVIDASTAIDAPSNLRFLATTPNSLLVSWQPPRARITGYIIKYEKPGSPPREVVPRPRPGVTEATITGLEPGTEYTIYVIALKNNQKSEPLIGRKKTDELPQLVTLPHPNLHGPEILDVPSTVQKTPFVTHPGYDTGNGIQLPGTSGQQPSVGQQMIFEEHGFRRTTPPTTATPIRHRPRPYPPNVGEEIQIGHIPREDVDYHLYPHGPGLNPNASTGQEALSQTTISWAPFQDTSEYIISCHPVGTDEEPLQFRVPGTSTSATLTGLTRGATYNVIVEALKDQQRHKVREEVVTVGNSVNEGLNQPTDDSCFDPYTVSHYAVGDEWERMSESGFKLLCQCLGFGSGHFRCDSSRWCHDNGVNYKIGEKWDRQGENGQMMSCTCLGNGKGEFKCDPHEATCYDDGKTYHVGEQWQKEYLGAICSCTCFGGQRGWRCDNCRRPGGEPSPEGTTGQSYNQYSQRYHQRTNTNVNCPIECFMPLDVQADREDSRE

For `CC(=O)N[C@H]1[C@H](O[C@H]2[C@@H](O)[C@@H](CO)OC(O)[C@@H]2NC(C)=O)O[C@H](CO)[C@@H](O)[C@@H]1O` (some centres unmarked) [GlcNAcβ-1,3GalNAc], the “CFG glycan array v5.0” value at N-Als3p [1] (200 µg/ml) is “GlcNAcβ-1,3GalNAc and Fucα-1,2-Galβ-1,3-GalNAcβ-1,3-Gal were also recognized”. Regarding `CC(=O)N[C@H]1C(O)O[C@H](CO)[C@@H](O)[C@@H]1O` (some centres unmarked) [GlcNAc], the “SPR, immobilised BSA-GlcNAc” value at N-Als3p [2] is recorded as “SPR experiments confirmed the binding of N-Als3p to GlcNAc”. Consider “N-terminal part of Als3p from Candida albicans (N-Als3p) (domain or fragment)”, for which, in assay [3], the Kd was found to be 410 µM. In the case of `CC(=O)N[C@H]1C(O)O[C@H](CO)[C@H](O)[C@@H]1O[C@@H]1O[C@H](CO)[C@H](O)[C@H](O)[C@H]1O` (some centres unmarked) [T antigen], the “CFG glycan array v5.0” value on N-Als3p [1] (200 and 20 µg/ml) is “N-Als3p bound also to the T antigen”.

Turning to `OC[C@H]1O[C@@H](O[C@H]2[C@H](O)[C@@H](O)C(O)O[C@@H]2CO)[C@H](O)[C@@H](O)[C@H]1O` (some centres unmarked) [lactose], the “SPR inhibition of binding to immobilised mucin” value on N-Epa1p is “binding of N-Epa1p to mucin could be blocked by lactose in a concentration-dependent manner”. `CC(=O)N[C@H]1[C@H](O[C@H]2[C@@H](O)[C@@H](CO)OC(O)[C@@H]2O)O[C@H](CO)[C@H](O)[C@@H]1O[C@@H]1O[C@H](CO)[C@H](O)[C@H](O)[C@H]1O[C@@H]1O[C@@H](C)[C@@H](O)[C@@H](O)[C@@H]1O` (some centres unmarked) [Fucα-1,2-Galβ-1,3-GalNAcβ-1,3-Gal]: the “CFG glycan array v5.0” value at N-Als3p [1] (200 µg/ml) is “GlcNAcβ-1,3GalNAc and Fucα-1,2-Galβ-1,3-GalNAcβ-1,3-Gal were also recognized”. Molecule “N-terminal domain of Epa1p from Candida glabrata (N-Epa1p) (domain or fragment)” had a Kd in assay [4] of 4.67 µM.

B1: N-terminal part of Als3p from Candida albicans (N-Als3p) (domain or fragment)
chain: KTITGVFNSFNSLTWSNAATYNYKGPGTPTWNAVLGWSLDGTSASPGDTFTLNMPCVFKFTTSQTSVDLTAHGVKYATCQFQAGEEFMTFSTLTCTVSNTLTPSIKALGTVTLPLAFNVGGTGSSVDLEDSKCFTAGTNTVTFNDGGKKISINVDFERSNVDPKGYLTDSRVIPSLNKVSTLFVAPQCANGYTSGTMGFANTYGDVQIDCSNIHVGITKGLNDWNYPVSSESFSYTKTCSSNGIFITYKNVPAGYRPFVDAYISATDVNSYTLSYANEYTCAGGYWQRAPFTLRWTGYRNSDAGSNGIVIVATTRTVTDSTTAVTTLPFDPNRDKTKTIEILKPIPTTTITTSYVGVTTSYSTKTAPIGETATVIVDIPYHTTTTVTSKWTGTITSTTTHTNPTDSIDTVIVQVP
modifications: Secreted from S. cerevisiae, C-terminal His tag omitted. The strain of the allele is not given; the SC5314 reference entry is used. Limits 18-432 are printed in Text S1.
B1: the Kd with Fibronectin (FN) worked out at 10 ± 1 µM.
